In ChEMBL document CHEMBL1671791, “Electron paramagnetic resonance (EPR) study of spin-labeled camptothecin derivatives: a different look of the ternary complex” (J Med Chem, 2011):
Calls of active or inactive are those of the source. No cut-off for these calls is given here.

Experiments:
[1] = target: T1, DNA topoisomerase 1 (Homo sapiens) (UniProt P11387); assay: Inhibition of human recombinant DNA topoisomerase 1-mediated DNA cleavage at 0.1 to 100 uM after 20 mins
T1 sequence (whole entry): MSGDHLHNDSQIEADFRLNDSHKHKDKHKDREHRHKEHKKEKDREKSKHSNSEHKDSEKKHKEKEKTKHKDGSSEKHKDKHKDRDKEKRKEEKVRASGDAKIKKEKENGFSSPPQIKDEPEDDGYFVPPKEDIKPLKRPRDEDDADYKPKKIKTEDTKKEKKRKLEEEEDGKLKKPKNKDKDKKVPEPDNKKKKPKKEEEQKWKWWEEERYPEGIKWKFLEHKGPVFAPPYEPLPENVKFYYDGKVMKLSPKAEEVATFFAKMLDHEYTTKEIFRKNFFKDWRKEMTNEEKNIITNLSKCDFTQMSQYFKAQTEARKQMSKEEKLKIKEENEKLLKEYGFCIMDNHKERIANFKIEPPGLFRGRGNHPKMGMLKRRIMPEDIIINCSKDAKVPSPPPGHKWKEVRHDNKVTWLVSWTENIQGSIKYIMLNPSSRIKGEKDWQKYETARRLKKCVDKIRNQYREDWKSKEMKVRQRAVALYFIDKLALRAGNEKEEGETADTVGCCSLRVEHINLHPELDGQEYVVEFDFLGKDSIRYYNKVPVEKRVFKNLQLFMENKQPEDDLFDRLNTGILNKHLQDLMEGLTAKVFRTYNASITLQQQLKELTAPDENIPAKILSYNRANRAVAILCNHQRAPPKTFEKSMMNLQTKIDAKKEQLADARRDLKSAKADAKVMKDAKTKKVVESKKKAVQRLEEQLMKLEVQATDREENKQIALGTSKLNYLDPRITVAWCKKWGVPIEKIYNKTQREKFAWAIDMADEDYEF

[2] = target: T1, DNA topoisomerase 1 (Homo sapiens); assay: Reversible inhibition of human recombinant DNA topoisomerase 1-mediated DNA cleavage at 0.1 to 100 uM after 20 mins
[3] = target: T1, DNA topoisomerase 1 (Homo sapiens); assay: Binding affinity to human recombinant DNA topoisomerase 1 at 20 uM by electron paramagnetic resonance analysis

| inhibition [1] | inhibition [2] | Activity [3] | Structure (SMILES) |
| --- | --- | --- | --- |
| Active |  |  | CC[C@@]1(O)C(=O)OCc2c1cc1n(c2=O)Cc2c-1nc1ccccc1c2C(=O)NC1CC(C)(C)N([O])C(C)(C)C1 |
| Active | Active | Active | CC[C@@]1(O)C(=O)OCc2c1cc1n(c2=O)Cc2c-1nc1ccccc1c2/C=N/C1CC(C)(C)N([O])C(C)(C)C1 |
